Nine compounds from patent US4605669A, “Lipoxygenase inhibiting naphthohydroxamic acids” (Abbott Laboratories, priority 1985, dated 1986) can be followed below.

pIC50: −log10 of the molar value. Where two headings read alike, the source gives them in different places.

Common to all, as to format: biochemical
One assay deals with T1, 15-lipoxygenase (Glycine max, UniProt P08170).
T1 construct: 15-lipoxygenase obtained from soybean; from tissue; host or cells: soybean
T1 sequence (P08170 1-839): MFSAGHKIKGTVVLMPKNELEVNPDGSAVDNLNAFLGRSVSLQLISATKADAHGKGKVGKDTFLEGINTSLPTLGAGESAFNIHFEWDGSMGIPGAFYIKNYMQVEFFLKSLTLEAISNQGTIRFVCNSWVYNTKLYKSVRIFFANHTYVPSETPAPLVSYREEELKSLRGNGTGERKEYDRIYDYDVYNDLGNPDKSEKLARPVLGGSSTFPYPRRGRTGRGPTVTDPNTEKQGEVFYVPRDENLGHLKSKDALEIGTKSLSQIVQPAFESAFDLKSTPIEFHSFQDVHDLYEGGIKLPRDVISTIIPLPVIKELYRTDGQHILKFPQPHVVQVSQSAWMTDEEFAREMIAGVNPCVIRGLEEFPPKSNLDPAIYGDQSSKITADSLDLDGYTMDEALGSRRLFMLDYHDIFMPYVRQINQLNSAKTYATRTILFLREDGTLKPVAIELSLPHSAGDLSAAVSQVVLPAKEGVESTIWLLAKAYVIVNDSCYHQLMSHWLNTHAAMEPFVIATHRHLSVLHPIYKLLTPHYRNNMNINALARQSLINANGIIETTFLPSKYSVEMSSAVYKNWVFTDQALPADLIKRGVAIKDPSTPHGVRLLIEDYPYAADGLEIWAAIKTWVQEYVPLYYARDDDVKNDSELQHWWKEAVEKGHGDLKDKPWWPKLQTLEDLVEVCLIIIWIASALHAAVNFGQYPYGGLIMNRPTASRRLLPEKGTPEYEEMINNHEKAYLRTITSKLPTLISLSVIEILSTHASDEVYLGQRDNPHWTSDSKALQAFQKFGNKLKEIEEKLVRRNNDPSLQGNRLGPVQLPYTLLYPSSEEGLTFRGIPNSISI
The assay can be described thus: Inhibition of 15-lipoxygenase obtained from soybean. Conditions: for inhibition at 10 µM: read-out: % Inhibition at Indicated Concentration, 15-lipoxygenase, 10 uM; for inhibition at 100 µM: read-out: % Inhibition at Indicated Concentration, 15-lipoxygenase, 100 uM. As for the experimental part:
(§1) The compounds of this invention are potent inhibitors of 5-, 12- and 15-lipoxygenase. An assay to determine 5-lipoxygenase activity was performed in incubations containing various concentrations of the test compound and the 20,000×G supernatant from 7.5×10^6 homogenized RBL-1 cells. Reactions were initiated by the addition of radiolabeled arachidonic acid and terminated by acidification and ether extraction. Reaction products were separated from nonconverted substrate by thin layer chromatography and measured by liquid scintillatiton spectroscopy. Inhibition of 5-lipoxygenase activity was calculated as the ratio of the amounts of product formed in the presence and absence of inhibitor.
(§2) The inhibitory activities of the compounds of this invention against 12- and 15-lipoxygenase can be determined in the foregoing assay in which 12-lipoxygenase obtained from human platelets, or 15-lipoxygenase obtained from soybean, is substituted for the 5-lipoxygenase-containing cell supernatant fraction.

For another assay, the target named is T2, 5-lipoxygenase (Rattus norvegicus, UniProt P12527).
T2 construct: homogenized RBL-1 cells; endogenous in cells; host or cells: RBL-1 cells (20,000×G supernatant of homogenate)
T2 sequence (P12527 1-673): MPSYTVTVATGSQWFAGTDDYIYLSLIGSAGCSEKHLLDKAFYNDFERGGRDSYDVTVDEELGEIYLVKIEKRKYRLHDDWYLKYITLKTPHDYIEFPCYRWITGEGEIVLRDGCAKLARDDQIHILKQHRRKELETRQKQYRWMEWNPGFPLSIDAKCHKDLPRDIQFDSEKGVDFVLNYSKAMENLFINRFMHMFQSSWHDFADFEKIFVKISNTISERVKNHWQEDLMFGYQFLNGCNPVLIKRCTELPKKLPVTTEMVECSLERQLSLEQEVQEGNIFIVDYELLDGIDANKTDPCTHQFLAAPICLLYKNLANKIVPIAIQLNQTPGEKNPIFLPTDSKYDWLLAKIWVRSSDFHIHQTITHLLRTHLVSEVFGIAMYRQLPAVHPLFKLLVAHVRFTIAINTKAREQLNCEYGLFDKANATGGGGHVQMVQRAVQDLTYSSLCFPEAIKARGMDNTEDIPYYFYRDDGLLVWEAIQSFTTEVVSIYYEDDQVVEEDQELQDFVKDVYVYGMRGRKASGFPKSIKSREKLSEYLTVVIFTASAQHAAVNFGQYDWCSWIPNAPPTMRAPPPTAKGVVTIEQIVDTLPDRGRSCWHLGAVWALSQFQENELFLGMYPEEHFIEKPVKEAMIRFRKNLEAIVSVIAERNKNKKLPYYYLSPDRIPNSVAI
In words: 5-Lipoxygenase IC50 determination (20,000×G supernatant of homogenized RBL-1 cells, radiolabeled arachidonic acid). Conditions: 20,000×G supernatant from homogenized RBL-1 cells. As for the experimental part: Reactions were initiated by the addition of radiolabeled arachidonic acid and terminated by acidification and ether extraction. Reaction products were separated from nonconverted substrate by thin layer chromatography and measured by liquid scintillatiton spectroscopy. Inhibition of 5-lipoxygenase activity was calculated as the ratio of the amounts of product formed in the presence and absence of inhibitor.

The target in a further assay is T3, 12-lipoxygenase (Homo sapiens, UniProt P18054).
T3 construct: 12-lipoxygenase obtained from human platelets; from tissue; host or cells: human platelets
T3 sequence (P18054 1-663): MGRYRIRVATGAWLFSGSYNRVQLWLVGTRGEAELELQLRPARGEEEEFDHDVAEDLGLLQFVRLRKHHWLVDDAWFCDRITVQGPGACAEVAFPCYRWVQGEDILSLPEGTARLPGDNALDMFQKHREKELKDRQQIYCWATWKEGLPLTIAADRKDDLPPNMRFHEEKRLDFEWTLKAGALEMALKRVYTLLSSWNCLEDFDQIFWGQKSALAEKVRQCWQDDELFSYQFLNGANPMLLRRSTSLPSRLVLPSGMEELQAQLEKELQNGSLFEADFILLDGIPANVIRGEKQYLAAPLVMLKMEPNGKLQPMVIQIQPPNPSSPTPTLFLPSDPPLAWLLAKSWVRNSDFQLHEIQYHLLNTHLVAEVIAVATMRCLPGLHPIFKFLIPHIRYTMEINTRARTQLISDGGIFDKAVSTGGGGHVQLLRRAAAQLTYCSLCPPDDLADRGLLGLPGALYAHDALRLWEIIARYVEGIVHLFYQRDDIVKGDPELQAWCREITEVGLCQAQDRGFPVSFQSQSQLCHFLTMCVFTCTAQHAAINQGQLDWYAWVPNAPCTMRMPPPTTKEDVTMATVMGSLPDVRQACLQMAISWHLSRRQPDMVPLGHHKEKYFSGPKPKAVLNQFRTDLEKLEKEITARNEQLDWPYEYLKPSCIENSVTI
The assay can be described thus: Inhibition of 12-lipoxygenase obtained from human platelets. Conditions: human platelet 12-lipoxygenase. As for the experimental part:
as §1, §2

[1] abbreviates: 100 uM, soybean 15-lipoxygenase.

For `COc1ccc2cc(C(=O)NO)ccc2c1` [Example 2, 6-Methoxy-2-naphthohydroxamic acid], on 15-lipoxygenase, the inhibition at 10 µM amounted to 23% and the inhibition at 100 µM is 44%. In addition, on 5-lipoxygenase, the pIC50 (as a rule, the IC50 on a negative log10 scale, so that one unit is a factor of ten) is 5.10.

For the compound `CCCCCCCOc1ccc2cc(C(=O)NO)ccc2c1` [Example 5, 6-(1-heptoxy)-2-naphthohydroxamic acid], at 5-lipoxygenase, the negative-log IC50 (pIC50) is 5.15.

With `CCCCCCCCOc1ccc2cc(C(=O)NO)ccc2c1` [Example 6, 6-(1-octoxy)-2-naphthohydroxamic acid], the inhibition at 10 µM at 12-lipoxygenase (10 uM, read-out: % Inhibition at Indicated Concentration, 12-lipoxygenase, 10 uM) is 68%. Also, the inhibition at 100 µM on 12-lipoxygenase (100 uM, read-out: % Inhibition at Indicated Concentration, 12-lipoxygenase, 100 uM) came out at 71%. At 5-lipoxygenase, this compound gave a pIC50 of 5.19.

As to `CCCCOc1ccc2cc(C(=O)N(C)O)ccc2c1` [Example 4, N-methyl-6-(1-butoxy)-2-naphthohydroxamic acid], the inhibition at 10 µM at 15-lipoxygenase (10 uM, soybean 15-lipoxygenase) is 29%. For the same compound, on 15-lipoxygenase (setting [1]), the inhibition at 100 µM came to 74%. Further, on 5-lipoxygenase, the negative logarithm of the IC50 (pIC50) was 6.39.

For the compound `C=CCOc1ccc2cc(C(=O)NO)ccc2c1` [Example 7, 6-(1-prop-2-enoxy)-2-naphthohydroxamic acid], the pIC50 at 5-lipoxygenase is 5.34.

`O=C(NO)c1ccc2cc(OCc3ccccc3)ccc2c1` [Example 9, 6-(benzyloxy)-2-naphthohydroxamic acid] had a pIC50 on 5-lipoxygenase of 4.52.

“6-(1-non-2-enoxy)-2-naphthohydroxamic acid [Example 8]”: the % Inhibition (in general, the drop in the measured response relative to a control, in per cent) at Indicated Concentration, 15-lipoxygenase, 10 uM on 15-lipoxygenase (10 uM, soybean 15-lipoxygenase) was determined as 10%. Also, at 15-lipoxygenase (setting [1]), the “% Inhibition at Indicated Concentration, 15-lipoxygenase, 100 uM” value is given as 70%. In addition, at 12-lipoxygenase (10 uM), the “% Inhibition at Indicated Concentration, 12-lipoxygenase, 10 uM” value is recorded as 74%. Besides, on 12-lipoxygenase (100 uM), the “% Inhibition at Indicated Concentration, 12-lipoxygenase, 100 uM” value was determined as 77%. Further, at 5-lipoxygenase, the pIC50 is 5.54.

Compound `CCCCCCCCCOc1ccc2cc(C(=O)NO)ccc2c1` [Example 1, 6-(1-nonoxy)-2-naphthohydroxamic acid] had a pIC50 on 5-lipoxygenase of 4.70.

In the case of `CCCCOc1ccc2cc(C(=O)NO)ccc2c1` [Example 3, 6-(1-butoxy)-2-naphthohydroxamic acid], the inhibition at 10 µM at 15-lipoxygenase (10 uM, soybean 15-lipoxygenase) is 45%. Further, the inhibition at 100 µM on 15-lipoxygenase (setting [1]) is 51%. The same compound showed a negative logarithm of the IC50 (pIC50) against 5-lipoxygenase of 5.70.
